In patent US10208046B2, “Nitrogen-containing heterocyclic compound” (Takeda Pharmaceutical Company Limited, priority 2014, dated 2019):

Assays:
[1] = test system: IP1 production in hippocampi; test: Measurement of myo-inositol 1 phosphate (IP1) in rat hippocampi after oral administration; format: in vivo, male Long-Evans rats; details: 30 mg/kg oral, rat hippocampus IP1/protein ratio, Vehicle group as 100%
Description: Measurement of Myo-Inositol 1 Phosphate (IP1)
Animals used were male Long-Evans rats. They were used after acclimation for at least 1 week. Test compounds were suspended in 0.5% (w/v) aqueous methylcellulose solution, and the suspension was orally administered to the rats. After a given time, lithium chloride was dissolved in saline and subcutaneously administered into the rats. After a given time, their bilateral hippocampi were isolated from the rats, and the wet weight thereof was measured. The isolated hippocampi were homogenized with HEPES buffer, followed by centrifugation. The IP1 and protein concentrations in the supernatant were measured by IP-One HTRF(R) assay kit (Cisbio Bioassays) and BCA protein assay kit (Thermo Scientific), respectively. The level of the IP1 production was expressed as the ratio of the concentration of IP1 to that of protein. The increase rate of the IP1 production was shown as a relative value when Vehicle administration group as 100%.

[2] = test system: Scopolamine-induced memory deficits models; test: Novel object recognition test; format: in vivo, male Long-Evans rats; details: scopolamine 0.1 mg/kg s.c., retention trial 4 hr later, mean±standard error
Description: Novel Object Recognition Test Novel object recognition test is comprised of two trials called the acquisition and the retention trials. Scopolamine-induced memory deficits models were used for the test, and animals used were male Long-Evans rats (7-week-old). On the day before the test, for acclimation, the rats were allowed to freely move about the test box (40×40×50 cm) for 10 minutes. On the test day, the rats were acclimated to the test room for about 1 hr prior to the test. The test compounds were orally administered to the rats in a single dose 2 hours before the acquisition trial. For induction of learning and memory deficits, scopolamine (0.1 mg/kg) was subcutaneously administered into the rats 30 min before the acquisition trial. For the acquisition trial, two identical objects (A1, A2) were placed in the test box. The rats were put in the test box for 3 min, and the duration exploring each object was measured. The retention trial was performed 4 hr after the acquisition trial. […] The duration for exploring each object in the acquisition trial and the retention trial was measured, and the exploration rate of novel object was calculated. The exploration rate of novel object was expressed as (the duration exploring the novel object)/[(the duration exploring the novel object)+(the duration exploring the familiar object)]×100(%) at mean±standard error.

[3] = target: T1, human M1 receptor (hCHRM1) (Homo sapiens, UniProt P11229); test: Measurement of M1 receptor positive allosteric modulator (M1PAM) activity, calcium fluorescence in CHO-K1 cells; format: cell-based;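 as to EC50: potency reported as IP value in nM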
T1 construct: expressed in transfected cells
T1 sequence (P11229 1-460): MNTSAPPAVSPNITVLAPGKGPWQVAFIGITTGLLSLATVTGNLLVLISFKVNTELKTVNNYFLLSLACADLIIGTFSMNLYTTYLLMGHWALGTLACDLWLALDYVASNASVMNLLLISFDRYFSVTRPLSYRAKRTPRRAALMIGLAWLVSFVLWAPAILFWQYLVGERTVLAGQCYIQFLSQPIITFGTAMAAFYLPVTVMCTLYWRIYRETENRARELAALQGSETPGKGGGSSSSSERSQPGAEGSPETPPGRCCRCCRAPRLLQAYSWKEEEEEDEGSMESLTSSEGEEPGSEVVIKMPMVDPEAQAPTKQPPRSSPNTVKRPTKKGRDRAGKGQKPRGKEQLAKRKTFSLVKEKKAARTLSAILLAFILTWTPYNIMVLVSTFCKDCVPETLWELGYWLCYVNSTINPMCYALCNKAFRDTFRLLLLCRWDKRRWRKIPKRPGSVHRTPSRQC
How it was run: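 CHO-K1 cells stably expressing human M1, Fluo-4 loaded, treated with compound plus acetylcholine at EC20 (final 0.6-0.8 nM); calcium fluorescence read by FLIPR over 1 min. Activity scaled to 1 μM acetylcholine (100%) and DMSO (0%); IP = inflection point of concentration-response curve.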

- activity (%) at 10 μM ([3]; 10 μM test compound with acetylcholine at EC20, 100% = acetylcholine 1 μM, 0% = DMSO): 109%
- EC50 ([3]; inflection point in the concentration-dependent curve, acetylcholine at EC20 (final 0.6-0.8 nM), CHO-K1 cells expressing human M1, Fluo-4, FLIPRtetra, read-out: IP value): 70 nM
Structure (SMILES): Cc1nn(C)cc1-c1ccc(CN2Cc3ccnc(OCC(F)F)c3C2=O)cc1 [Example 6, 4-(2,2-difluoroethoxy)-2-(4-(1,3-dimethyl-1H-pyrazol-4-yl)benzyl)-1,2-dihydro-3H-pyrrolo[3,4-c]pyridin-3-one]
- increase rate (% of Vehicle) [1]: 38 % of Vehicle
- exploration rate of novel object (%) ([2]; 3 mg/kg oral single dose 2 hours before acquisition trial): 58.75±2.01%
- exploration rate of novel object (%) ([2]; 10 mg/kg oral single dose 2 hours before acquisition trial): 52.48±2.28%
